# Numbered stars: 1 amine (or outer) side, 2 acyl side, 3 side chain; on linkers, the order of the positions; unused ones are H or OH. Bridge positions count the residues as written; N and C are the ends. Square brackets hold non-standard residues; d marks the D form. Side chains are listed from the residue outwards. Peptide text beside a SMILES is read from it. * marks the point of attachment. C18 diacid = O=C(O)CCCCCCCCCCCCCCCCC(=O)*; γGlu = O=C(O)[C@H](CCC(=O)[*:2])N[*:1]; αMeF = C[C@](N)(Cc1ccccc1)C(=O)O; Dab = NCC[C@H](N)C(=O)O; AEEA = NCCOCCOCC(=O)O
# What was measured:
# [1] = target: T1, human calcitonin receptor (hCTR) (Homo sapiens, UniProt P30988); experiment: cAMP production in 1321N1 cells with stable recombinant expression of human calcitonin receptor (hCTR); format: cell-based; conditions: cAMP, 1321N1 cells, assay buffer with 0.1% BSA; read-out: EC50 (pM) hCTR
# T1 construct: expressed in transfected cells
# T1 sequence (P30988 25-474): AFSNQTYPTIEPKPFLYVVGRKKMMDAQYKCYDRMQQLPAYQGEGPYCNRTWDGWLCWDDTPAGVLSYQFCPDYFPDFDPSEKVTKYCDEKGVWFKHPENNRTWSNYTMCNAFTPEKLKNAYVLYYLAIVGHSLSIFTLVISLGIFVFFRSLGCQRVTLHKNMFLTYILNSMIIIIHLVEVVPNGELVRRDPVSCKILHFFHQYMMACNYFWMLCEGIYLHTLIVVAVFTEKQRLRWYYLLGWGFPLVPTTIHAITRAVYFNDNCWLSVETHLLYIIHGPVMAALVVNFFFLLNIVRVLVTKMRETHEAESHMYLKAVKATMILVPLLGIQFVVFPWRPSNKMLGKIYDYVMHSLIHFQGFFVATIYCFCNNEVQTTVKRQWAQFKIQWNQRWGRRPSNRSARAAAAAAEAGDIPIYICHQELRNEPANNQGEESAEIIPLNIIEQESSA
# In short: (§1)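 EC50 values come from 4-parameter logistic fits of HTRF cAMP signal, normalised to maximal calcitonin or amylin effect. Peptides were tested in duplicate for 30 min at RT in IBMX-containing (0.5 mM) BSA/HEPES buffer pH 7.4 on stable 1321N1 (human CTR, AMYR3) or HEK (rat CTR, AMYR3) lines.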
# [2] = Thioflavin T fibrillation assay; format: physicochemical; conditions: ThT fibrillation assay; peptide 1 mg/mL in 25 mM sodium acetate buffer pH 4.0; 6 days at 37 °C with shaking; >144 h = no increase
# Description: Peptide aggregation that form fibrils is an indication of physical instability. Fibril formation in solution poses a significant risk for the stability of injectable peptide drug products. Thioflavin T (ThT) fibrillation assay is a useful tool to assess the aggregation kinetics of a peptide or protein under accelerated and stressed conditions that can be used to forecast the long-term viability of a compound in solution. ThT can selectively bind amyloid fibrils and the resultant complex emits strong fluorescence signal at 482 nm when excited at 450 nm (Anal Biochem. 1989 Mar;177(2):244-9). Monitoring of the change in fluorescence signal is an established method to study the fibril forming potential of peptides and proteins. ThT (purchased from Sigma Aldrich) stock solution is prepared by dissolving the ThT powder in Milli-Q water and filtered to obtain a 0.25 mM solution. The concentration of the solution is measured at 412 nm using an extinction coefficient of 36 mM^−1cm^−1. Test peptides were dissolved at 1 mg/mL in 25 mM sodium acetate buffer pH 4.0. 100 μL aliquot of peptide solution and 5 μL aliquot of ThT solution were placed in a clear bottom black fluorescence 96-well plate. 5 replicates of each test samples were placed in zo the same row of the plate. Buffer was placed in control wells for baseline correction. All empty wells were filled with water to prevent evaporation. The plate was sealed with aluminium seal and placed in fluorescence plate reader and incubated for 6 days at 37 ° C. with intermittent orbital shaking at 500 to 750 rpm. The fluorescence intensity was measured every 30 min using excitation at 444 nm and emission at 480 nm. The fibril forming potential of the test peptides was determined by measuring the average time taken to detect an increase in baseline corrected fluorescence intensity.
# [3] = target: T2, human amylin receptor (calcitonin receptor co-expressed with receptor activity modifying protein, RAMP3) (hAMYR3) (Homo sapiens, UniProt O60896+P30988); experiment: cAMP production in 1321N1 cells with stable recombinant expression of human amylin receptor (hAMYR3); format: cell-based; conditions: for Ratio (selectivity hAMYR vs hCTR, ratio of EC50 values at the two receptors): EC50 hCTR / EC50 hAMYR3; for EC50: cAMP, 1321N1 cells, assay buffer with 0.1% BSA, read-out: EC50 (pM) hAMYR3
# T2 construct: expressed in transfected cells
# T2 sequence (P30988 25-474): T1 sequence (P30988 25-474)
# T2 sequence (O60896 24-148 partner): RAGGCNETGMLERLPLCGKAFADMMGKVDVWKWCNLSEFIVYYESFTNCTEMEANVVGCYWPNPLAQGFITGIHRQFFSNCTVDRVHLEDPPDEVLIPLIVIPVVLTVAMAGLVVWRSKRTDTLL
# In short: as §1
Compound,EC50 [1],Time taken to detect increase in fluorescence intensity [2],"Ratio (selectivity hAMYR vs hCTR, ratio of EC50 values at the two receptors) [3]",EC50 [3]
"CC[C@H](C)[C@H](NC(=O)[C@@H]1CCCN1C(=O)CNC(=O)[C@](C)(Cc1ccccc1)NC(=O)[C@H](CC(N)=O)NC(=O)[C@H](CC(N)=O)NC(=O)[C@H](CO)NC(=O)[C@H](CO)NC(=O)[C@H](Cc1c[nH]cn1)NC(=O)[C@H](CCCNC(=N)N)NC(=O)[C@H](CC(C)C)NC(=O)[C@H](Cc1ccccc1)NC(=O)[C@H](CCC(=O)O)NC(=O)[C@H](C)NC(=O)[C@H](CC(C)C)NC(=O)[C@H](CCCNC(=N)N)NC(=O)[C@H](CCC(N)=O)NC(=O)[C@@H](NC(=O)[C@H](C)NC(=O)[C@@H]1CSSC[C@H](NC(=O)[C@@H](N)CCCCNC(=O)CC[C@H](NC(=O)CC[C@H](NC(=O)CCCCCCCCCCCCCCCCC(=O)O)C(=O)O)C(=O)O)C(=O)N[C@@H](CC(N)=O)C(=O)N[C@@H]([C@@H](C)O)C(=O)N[C@@H](C)C(=O)N[C@@H]([C@@H](C)O)C(=O)N1)[C@@H](C)O)C(=O)N[C@@H](CC(C)C)C(=O)N1CCC[C@H]1C(=O)N1CCC[C@H]1C(=O)N[C@H](C(=O)N[C@@H](CC(N)=O)C(=O)N[C@H](C(=O)NCC(=O)N[C@@H](CO)C(=O)N[C@@H](CC(N)=O)C(=O)N[C@H](C(=O)N[C@@H](Cc1ccc(O)cc1)C(N)=O)[C@@H](C)O)C(C)C)[C@@H](C)O [Peptide 11, K(γE-γE-C18diacid)[CNTATC]ATQRLAEFLRHSSNN(αMePhe)GPILPPTNVGSNTY-amide] (H-K([γGlu-γGlu-C18 diacid])CNTATCATQRLAEFLRHSSNN[αMeF]GPILPPTNVGSNTY-NH2; disulfide 2-7)",3640 pM,>144 h,21,177 pM
"CC[C@H](C)[C@H](NC(=O)[C@@H]1CCCN1C(=O)CNC(=O)[C@](C)(Cc1ccccc1)NC(=O)[C@H](CC(N)=O)NC(=O)[C@H](CC(N)=O)NC(=O)[C@H](CO)NC(=O)[C@H](CO)NC(=O)[C@H](Cc1c[nH]cn1)NC(=O)[C@@H](NC(=O)[C@H](CC(C)C)NC(=O)[C@H](Cc1ccccc1)NC(=O)[C@H](CC(N)=O)NC(=O)[C@H](C)NC(=O)[C@H](CC(C)C)NC(=O)[C@H](CCCNC(=N)N)NC(=O)[C@H](CCC(N)=O)NC(=O)[C@@H](NC(=O)[C@H](C)NC(=O)[C@@H]1CSSC[C@H](NC(=O)[C@@H](N)CCCCNC(=O)CC[C@H](NC(=O)CC[C@H](NC(=O)CCCCCCCCCCCCCCCCC(=O)O)C(=O)O)C(=O)O)C(=O)N[C@@H](CC(N)=O)C(=O)N[C@@H]([C@@H](C)O)C(=O)N[C@@H](C)C(=O)N[C@@H]([C@@H](C)O)C(=O)N1)[C@@H](C)O)C(C)C)C(=O)N[C@@H](CC(C)C)C(=O)N1CCC[C@H]1C(=O)N1CCC[C@H]1C(=O)N[C@H](C(=O)N[C@@H](CC(N)=O)C(=O)N[C@H](C(=O)NCC(=O)N[C@@H](CO)C(=O)N[C@@H](CC(N)=O)C(=O)N[C@H](C(=O)N[C@@H](Cc1ccc(O)cc1)C(N)=O)[C@@H](C)O)C(C)C)[C@@H](C)O [Peptide 13, K(γE-γE-C18diacid)[CNTATC]ATQRLANFLVHSSNN(αMePhe)GPILPPTNVGSNTY-amide] (H-K([γGlu-γGlu-C18 diacid])CNTATCATQRLANFLVHSSNN[αMeF]GPILPPTNVGSNTY-NH2; disulfide 2-7; N-terminus assumed)",2040 pM,25 h,10,196 pM
"CC[C@H](C)[C@H](NC(=O)[C@@H]1CCCN1C(=O)CNC(=O)[C@](C)(Cc1ccccc1)NC(=O)[C@H](CC(N)=O)NC(=O)[C@H](CC(N)=O)NC(=O)[C@H](CO)NC(=O)[C@H](CO)NC(=O)[C@H](Cc1c[nH]cn1)NC(=O)[C@H](CCCNC(=N)N)NC(=O)[C@H](CC(C)C)NC(=O)[C@H](Cc1ccccc1)NC(=O)[C@H](CC(N)=O)NC(=O)[C@H](C)NC(=O)[C@H](CC(C)C)NC(=O)[C@H](CCCNC(=N)N)NC(=O)[C@H](CCC(N)=O)NC(=O)[C@@H](NC(=O)[C@H](C)NC(=O)[C@@H]1CSSC[C@H](NC(=O)[C@@H](N)CCCCNC(=O)COCCOCCNC(=O)COCCOCCNC(=O)CC[C@H](NC(=O)CCCCCCCCCCCCCCCCC(=O)O)C(=O)O)C(=O)N[C@@H](CC(N)=O)C(=O)N[C@@H]([C@@H](C)O)C(=O)N[C@@H](C)C(=O)N[C@@H]([C@@H](C)O)C(=O)N1)[C@@H](C)O)C(=O)N[C@@H](CC(C)C)C(=O)N1CCC[C@H]1C(=O)N1CCC[C@H]1C(=O)N[C@H](C(=O)N[C@@H](CCC(=O)O)C(=O)N[C@H](C(=O)NCC(=O)N[C@@H](CO)C(=O)N[C@@H](CC(N)=O)C(=O)N[C@H](C(=O)N[C@@H](Cc1ccc(O)cc1)C(N)=O)[C@@H](C)O)C(C)C)[C@@H](C)O [Peptide 17, K(O2Oc-O2Oc-γE-C18diacid)[CNTATC]ATQRLANFLRHSSNN(αMePhe)GPILPPTEVGSNTY-amide] (H-K([AEEA-AEEA-γGlu-C18 diacid])CNTATCATQRLANFLRHSSNN[αMeF]GPILPPTEVGSNTY-NH2; disulfide 2-7; N-terminus assumed)",7080 pM,>144 h,19,365 pM
"CC[C@H](C)[C@H](NC(=O)[C@@H]1CCCN1C(=O)CNC(=O)[C@H](Cc1ccccc1)NC(=O)[C@H](CC(N)=O)NC(=O)[C@H](CCN)NC(=O)[C@H](CO)NC(=O)[C@H](CO)NC(=O)[C@H](Cc1c[nH]cn1)NC(=O)[C@@H](NC(=O)[C@H](CC(C)C)NC(=O)[C@H](Cc1ccccc1)NC(=O)[C@H](CC(N)=O)NC(=O)[C@H](C)NC(=O)[C@H](CC(C)C)NC(=O)[C@H](CCCNC(=N)N)NC(=O)[C@H](CCC(N)=O)NC(=O)[C@@H](NC(=O)[C@H](C)NC(=O)[C@@H]1CSSC[C@H](NC(=O)[C@H](CCCCN)NC(=O)[C@@H](N)CCCCNC(=O)CC[C@H](NC(=O)CCCCCCCCCCCCCCCCC(=O)O)C(=O)O)C(=O)N[C@@H](CC(N)=O)C(=O)N[C@@H]([C@@H](C)O)C(=O)N[C@@H](C)C(=O)N[C@@H]([C@@H](C)O)C(=O)N1)[C@@H](C)O)C(C)C)C(=O)N[C@@H](CC(C)C)C(=O)N1CCC[C@H]1C(=O)N1CCC[C@H]1C(=O)N[C@H](C(=O)N[C@@H](CCC(=O)O)C(=O)N[C@H](C(=O)NCC(=O)N[C@@H](CO)C(=O)N[C@@H](CC(N)=O)C(=O)N[C@H](C(=O)N[C@@H](Cc1ccc(O)cc1)C(N)=O)[C@@H](C)O)C(C)C)[C@@H](C)O [Peptide 28, K(γE-C18diacid)K[CNTATC]ATQRLANFLVHSS(Dab)NFGPILPPTEVGSNTY-amide] (H-K([γGlu-C18 diacid])KCNTATCATQRLANFLVHSS[Dab]NFGPILPPTEVGSNTY-NH2; disulfide 3-8; N-terminus assumed)",9140 pM,45 h,23,390 pM

# — patent US20240067693A1, “POLYPEPTIDES AND USES THEREOF” (MEDIMMUNE LIMITED, priority 2020, published 2024)
